Laboratory results taken from patent US20250051327A1, “MALT-1 MODULATORS” (EXSCIENTIA AI LIMITED, priority 2020, published 2025).

target: Recombinant human MALT-1 (amino acids 340-824) (Homo sapiens (Human), UniProt Q9UDY8); assay: MALT-1 inhibition assay (fluorogenic substrate Ac-LRSR-Rh110-DP); assay type: biochemical; conditions: recombinant human MALT-1, substrate Ac-LRSR-Rh110-DP
Method: MALT-1 paracaspase activity was measured using the fluorogenic substrate Ac-LRSR-Rh110-DP (purchased from Biosantan GmbH). […] The reaction was initiated by addition of substrate. Final concentrations of MALT-1 and substrate were 3 nM and 10 μM respectively. Reactions were incubated in the dark for 60 minutes at 25° C. […] Percent inhibition values were calculated from relative fluorescence units at different doses and fitted to a 4-parameter logistic curve to determine IC50 values (see Table 1).

Recombinant human MALT-1 (amino acids 340-824), sequence (Q9UDY8 340-824): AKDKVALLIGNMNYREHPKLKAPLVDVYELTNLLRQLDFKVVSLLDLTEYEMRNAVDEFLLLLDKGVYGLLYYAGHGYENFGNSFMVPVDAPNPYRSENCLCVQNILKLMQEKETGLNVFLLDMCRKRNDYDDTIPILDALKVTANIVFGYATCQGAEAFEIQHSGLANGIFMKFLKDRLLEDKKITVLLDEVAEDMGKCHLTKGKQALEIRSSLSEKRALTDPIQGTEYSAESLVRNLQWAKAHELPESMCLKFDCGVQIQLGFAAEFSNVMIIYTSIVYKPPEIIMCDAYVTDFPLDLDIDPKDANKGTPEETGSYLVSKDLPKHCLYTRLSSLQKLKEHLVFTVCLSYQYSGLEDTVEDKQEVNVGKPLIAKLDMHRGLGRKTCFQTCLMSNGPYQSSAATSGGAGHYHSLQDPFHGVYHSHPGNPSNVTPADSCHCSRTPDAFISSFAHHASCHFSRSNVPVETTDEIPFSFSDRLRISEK

| IC50 [µM] | SMILES |
| --- | --- |
| 0.111 | COc1ccc2ncc(Nc3ccc([C@H](N(C)C(=O)C4CCN(C(C)=O)CC4)C(F)(F)F)cc3)c([C@H]3CCOC3)c2n1 [CPD0082479] |
| 0.111 | CN(C(=O)[C@H]1CCN(C(=O)CO)C1)[C@@H](c1ccc(N2CCCc3c2cnc2cc(F)nn32)cc1)C(F)(F)F [CPD0075878] |

test system: IL-2 secretion by human effector memory T cells (TEM); assay: Effector memory T cells IL-2 release assay; assay type: cell-based; conditions: T-cell; human CD4+ effector memory T cells, CD3/CD28 bead stimulation, 24 h; read-out: CD4TC IL2 IC50
Method: Effector Memory T Cells IL-2 Release Assay
Test compound-mediated inhibition of NFκB signalling in T cells was assessed by quantification of the IL-2 secretion by human effector memory T cells (TEM) upon treatment and stimulation. Human TEM cells were isolated from buffy coats of healthy donors obtained from the French blood bank. First, peripheral blood mononuclear cells (PBMC) were purified from buffy coats diluted 1:1 with DPBS (Gibco, cat #14190-094) by Pancoll (PAN BIOTECH, cat #P04-60500) density gradient centrifugation at 400×g for 20 minutes. TEM cells were further enriched by negative immuno-magnetic cell sorting using a human CD4+ Effector Memory T Cell Isolation Kit (Miltenyi, cat #130-094-125) according to the manufacturer's instructions. Aliquots of 3×10E6 purified TEM cells were kept frozen in Cryo-SFM medium (PromoCell, cat #C-29912) in gas phase nitrogen until used. Cell purity was verified by flow cytometry analysis of 200 000 PFA-fixed cells previously labelled with monoclonal antibodies anti-CD4-PerCP-Cy5.5 (BD Pharmigen, cat #332772), anti-CD8-V500 (BD Biosciences, cat #561617), anti-CD14-Pacific Blue (Biolegend, cat #325616), anti-CD45 RA-FITC (Biolegend, cat #304106) and anti-CCR7-APC (in CD4+ Effector Memory T Cell Isolation Kit, Miltenyi, cat #130-094-125).
TEM cells were resuspended in complete RPMI medium composed of: RPMI 1640 (Gibco, cat #31870-025), 10% heat inactivated fetal bovine serum (Sigma, cat #F7524), 2 mM GlutaMAX (Gibco, cat #35050-038), 1 mM sodium pyruvate 100× (Gibco, cat #11360-039), 1% MEM non-essential amino acids solution (Gibco, cat #11140-035) and 100 U/mL penicillin, 100 μg/mL streptomycin (Sigma-Aldrich, cat #11074440001). 5,000 cells per well were plated onto flat clear bottom 384 well plates (Corning, cat #3770). 5,000 Dynabeads Human T-Activator CD3/CD28 (Gibco, cat #11132D) were added to each well for cell stimulation. Finally, 10 doses of test compound, originally prepared in DMSO by serial semi-log step dilution, were also added to cells in triplicate wells. Final DMSO concentration in wells was 0.1% in a total volume of 100 μL complete medium. Plates were incubated for 24 h at 37° C. in 5% CO2 atmosphere. After incubation, cell suspensions were centrifuged at 400×g and culture supernatants were recovered and stored at −80° C. Cell viability was assessed by flow cytometry after staining the cells with Fixable Viability Dye eFluor 780 (Invitrogen, cat #65-0865-14). IL-2 levels were determined in cell supernatants using an HTRF human IL-2 detection kit (Cisbio, cat #62HIL02PEH). IL-2 data at the different compound doses were fitted to a 4-parameter logistic curve to determine IC50 values, corresponding to the compound concentration leading to 50% reduction of the maximal IL-2 levels observed in each experiment. Viability data were analysed similarly to exclude cytotoxicity as a cause of IL-2 decrease (see Table 1).

| IC50 [µM] | SMILES |
| --- | --- |
| 0.115 | COc1ccc2ncc(Nc3ccc([C@H](N(C)C(=O)C4CCS(=O)(=O)CC4)C(F)(F)F)cn3)c(C(C)OC)c2n1 (some centres unmarked) [CPD0019007] |
| 0.163 | CN(C(=O)[C@H]1CC[S@@](=N)(=O)CC1)[C@@H](c1ccc(N2CC(C)(C)Cc3c2cnc2cc(Cl)nn32)cc1)C(F)(F)F [CPD0073498, (1rel s, 4rel s)-N-[(1S)-1-(4-{4-chloro-12,12-dimethyl-2,3,7,10-tetraazatricyclo[7.4.0.0^2,6]trideca-1(9),3,5,7-tetraen-10-yl}phenyl)-2,2,2-trifluoroethyl]-1-imino-N-methyl-1-oxo-1λ^6-thiane-4-carboxamide] |
| 0.116 | CN(C(=O)C1CCS(=O)(=O)CC1)[C@@H](c1ccc(N2CC3(CC3)Cc3c2cnc2cc(Cl)nn32)cc1)C(F)(F)F [CPD0022148, N-[(1S)-1-(4-{4′-chloro-2′,3′,7′,10′-tetraazaspiro[cyclopropane-1,12′-tricyclo[7.4.0.0^2,6]tridecane]-1′(9′),3′,5′,7′-tetraen-10′-yl}phenyl)-2,2,2-trifluoroethyl]-N-methyl-1,1-dioxo-1λ^6-thiane-4-carboxamide] |
| 0.192 | COC[C@]1(C)CCN(c2ccc([C@H](N(C)C(=O)C3CCS(=O)(=O)CC3)C(F)(F)F)cc2)c2cnc3cc(Cl)nn3c21 [CPD0073140, N-[(1S)-1-[4-[(13rel-R)-4-chloro-13-(methoxymethyl)-13-methyl-2,3,7,10-tetrazatricyclo[7.4.0.0^2,6]trideca-1(9),3,5,7-tetraen-10-yl]phenyl]-2,2,2-trifluoro-ethyl]-N-methyl-1,1-dioxo-1λ^6-thiane-4-carboxamide] |
| 0.02 | COc1ccc2ncc(Nc3ccc([C@H](N(C)C(=O)C4CCS(=O)(=O)CC4)C(F)(F)F)cc3)c([C@H](C)OC)c2n1 (relative stereo) [CPD0019170, N-methyl-1,1-dioxo-N-[(1S)-2,2,2-trifluoro-1-[4-({6-methoxy-4-[(1 rel S)-1-methoxyethyl]-1,5-naphthyridin-3-yl}amino)phenyl]ethyl]-1λ^6-thiane-4-carboxamide] |
| 0.034 | COc1ccc2ncc(Nc3ccc([C@H](N(C)C(=O)C4CCS(=O)(=O)CC4)C(F)(F)F)cc3)c([C@H]3CCOC3)c2n1 [CPD0074039] |
| 0.112 | CN(C(=O)C1CCS(=O)(=O)CC1)[C@@H](c1ccc(N2CCC3(CC3)c3c2cnc2cc(Cl)nn32)nc1)C(F)(F)F [CPD0021660, N-[(1S)-1-(6-{4′-chloro-2′,3′,7′,10′-tetraazaspiro[cyclopropane-1,13′-tricyclo[7.4.0.0^2,6]tridecane]-1′(9′),3′,5′,7′-tetraen-10′-yl}pyridin-3-yl)-2,2,2-trifluoroethyl]-N-methyl-1,1-dioxo-1λ^6-thiane-4-carboxamide] |
| 0.108 | COc1ccc2ccc(Nc3ccc([C@H](N(C)C(=O)C4CCS(=O)(=O)CC4)C(F)(F)F)cc3)cc2n1 [CPD0019078, N-methyl-1,1-dioxo-N-[(1S)-2,2,2-trifluoro-1-{4-[(2-methoxyquinolin-7-yl)amino]phenyl}ethyl]-16-thiane-4-carboxamide] |
| 0.109 | CN(C(=O)C1CCS(=O)(=O)CC1)[C@@H](c1ccc(N2CC[C@]3(CCOC3)c3c2cnc2cc(Cl)nn32)cc1)C(F)(F)F [CPD0073763, N-[(1S)-1-[4-[(13rel-S)-4-chlorospiro[2,3,7,10-tetrazatricyclo[7.4.0.0^2,6]trideca-1(9),3,5,7-tetraene-13,3′-tetrahydrofuran]-10-yl]phenyl]-2,2,2-trifluoro-ethyl]-N-methyl-1,1-dioxo-1λ^6-thiane-4-carboxamide] |
| 0.239 | CN(C(=O)[C@@H]1CCN(C(=O)CC#N)C1)[C@@H](c1ccc(N2CCCc3c2cnc2cc(Cl)nn32)cc1)C(F)(F)F [CPD0073190, (3rel-R)-N-[(1S)-1-[4-(4-chloro-2,3,7,10-tetrazatricyclo[7.4.0.0^2,6]trideca-1(9),3,5,7-tetraen-10-yl)phenyl]-2,2,2-trifluoro-ethyl]-1-(2-cyanoacetyl)-N-methyl-pyrrolidine-3-carboxamide] |
| 0.035 | COc1ccc2ncc(Nc3ccc([C@H](N(C)C(=O)[C@@H]4CCC(=O)N4)C(F)(F)F)cc3)c([C@H](C)OC)c2n1 (relative stereo) [CPD0075580, (2 rel S)-N-methyl-5-oxo-N-[(1S)-2,2,2-trifluoro-1-[4-[[6-methoxy-4-[(1 rel S)-1-methoxyethyl]-1,5-naphthyridin-3-yl]amino]phenyl]ethyl]pyrrolidine-2-carboxamide] |
| 0.029 | COc1ccc2ncc(Nc3ccc([C@H](N(C)C(=O)[C@H]4CCC(=O)N4)C(F)(F)F)cc3)c([C@H](C)OC)c2n1 (relative stereo) [CPD0075581, (2 rel R)-N-methyl-5-oxo-N-[(1S)-2,2,2-trifluoro-1-[4-[6-methoxy-4-[(1 rel S)-1-methoxyethyl]-1,5-naphthyridin-3-yl]amino]phenyl]ethyl]pyrrolidine-2-carboxamide] |
| 0.172 | CN(C(=O)[C@H]1C[C@@H]([S@@+](C)(=N)[O-])C1)[C@@H](c1ccc(N2CCCc3c2cnc2cc(Cl)nn32)cc1)C(F)(F)F [CPD0073223, (1R,3s)-N-[(1S)-1-(4-{4-chloro-2,3,7,10-tetraazatricyclo[7.4.0.0^2,6]trideca-1(9),3,5,7-tetraen-10-yl}phenyl)-2,2,2-trifluoroethyl]-3-[(S)-imino(methyl)oxo-λ^6-sulfanyl]-N-methylcyclobutane-1-carboxamide] |
| 0.18 | COc1ccc2ncc(Nc3ccc([C@H](N(C)C(=O)C4CCS(=O)(=O)CC4)C(F)(F)F)cn3)c([C@@H](C)OC)c2n1 (relative stereo) [CPD0019006, N-methyl-1,1-dioxo-N-[(1S)-2,2,2-trifluoro-1-[6-({6-methoxy-4-[(1 rel S)-1-methoxyethyl]-1,5-naphthyridin-3-yl}amino)pyridin-3-yl]ethyl]-1λ^6-thiane-4-carboxamide] |
| 0.033 | COc1ccc2ncc(Nc3ccc([C@H](N(C)C(=O)C4CCS(=O)(=O)CC4)C(F)(F)F)cc3)c([C@@H]3CCOC3)c2n1 [CPD0074040] |
| 0.065 | COC[C@@]1(C)CCN(c2ccc([C@H](N(C)C(=O)C3CCS(=O)(=O)CC3)C(F)(F)F)cc2)c2cnc3cc(Cl)nn3c21 [CPD0073139, N-[(1S)-1-[4-[(13rel-S)-4-chloro-13-(methoxymethyl)-13-methyl-2,3,7,10-tetrazatricyclo[7.4.0.0^2,6]trideca-1(9),3,5,7-tetraen-10-yl]phenyl]-2,2,2-trifluoro-ethyl]-N-methyl-1,1-dioxo-1λ^6-thiane-4-carboxamide] |
| 0.068 | COc1ccc2ncc(Nc3ccc([C@H](N(C)C(=O)[C@H]4CNC(=O)C4)C(F)(F)F)cc3)c([C@H](C)OC)c2n1 (relative stereo) [CPD0074562, (3 rel R)-N-methyl-5-oxo-N-[(1S)-2,2,2-trifluoro-1-[4-[[6-methoxy-4-[(1 rel S)-1-methoxyethyl]-1,5-naphthyridin-3-yl]amino]phenyl]ethyl]pyrrolidine-3-carboxamide] |
| 0.041 | COc1ccc2ncc(Nc3ccc([C@H](N(C)C(=O)[C@@H]4CNC(=O)C4)C(F)(F)F)cc3)c([C@H](C)OC)c2n1 (relative stereo) [CPD0074550, (3 rel S)-N-methyl-5-oxo-N-[(1S)-2,2,2-trifluoro-1-[4-[6-methoxy-4-[(1 rel S)-1-methoxyethyl]-1,5-naphthyridin-3-yl]amino]phenyl]ethyl]pyrrolidine-3-carboxamide] |
